The subject of one assay is CCK-A receptor. In words: CCK-A receptor antagonist selectivity (statement only, no method). Conditions: statement in words, no data.
Another assay has as its system CCK receptor. In words: CCK receptor antagonism in isolated fundic circular muscle from guinea pig stomach. The note with it: test compound 1×10^-5 M added 5 minutes before CCK-8 (3.2×10^-7 M); isolated circular muscle strip. The procedure: CCK receptor antagonism in isolated fundic circular muscle from guinea pig stomach
The strip of circular muscle suspended in 25 ml organ bath containing Kreb's bicarbonate solution (NaCl 118 mM, KCl 4.8 mM, KH2 PO4 1.2 mM, MgSO4 1.2 mM, CaCl2 2.5 mM, NaHCO3 25 mM, glucose 11 mM and bovine serum albumin 0.1%) maintained at 37° C. and gassed with 95% O2 and 5% CO2.
The strip was placed under an initial tension of 0.5 g and equilibrated for 60 minutes during which the bath volume was replaced every 15 minutes. Isometric contraction was measured using a force transducer. CCK-8 (3.2×10^-7 M) was added to the bathing solution and the contractile force was measured. After washing out CCK-8, test compound A (1×10^-5 M) was added. 5 minutes later, CCK-8 was added and the contractile force was measured. CCK antagonism was calculated by comparing the contractile force induced by CCK in the absence or presence of test compound A.

For `O=C(N[C@H]1N=C(c2ccccc2)c2ccccc2N(Cc2nnn[nH]2)C1=O)c1cc2ccccc2[nH]1` [Example 42, (3S)-1,3-dihydro-3-(2-indolylcarbonylamino)-5-phenyl-1-[(1 H-tetrazol-5-yl)-methyl]-2H-1,4-benzodiazepin-2-one], the “CCK-A receptor antagonist selectivity” value in the assay with CCK-A receptor was “selective CCK-A receptor antagonist”.

Regarding `O=C(NC1N=C(c2ccccc2)c2ccccc2N(CCO)C1=O)c1cc2ccccc2[nH]1` (racemic) [test compound A, (3RS)-1,3-Dihydro-1-(2-hydroxyethyl)-3-(2-indolylcarbonylamino)-5-phenyl-2H-1,4-benzodiazepine-2-one], in the assay with CCK receptor, the “Inhibition (%) of CCK-induced contractile force” value came out at 91%.
